According to ChEMBL document CHEMBL2429764, “Synthesis and cytotoxic activity of novel hybrid compounds between 2-alkylbenzofuran and imidazole” (Med Chem Res, 2013):

Tests used:
Assay type in all cases: functional, cell-based
SW480 = assay: Cytotoxicity against human SW480 cells after 48 hrs by MTT assay; conditions: SW480, 48 h
MCF7 = assay: Cytotoxicity against human MCF7 cells after 48 hrs by MTT assay; conditions: MCF7, 48 h
A549 = assay: Cytotoxicity against human A549 cells after 48 hrs by MTT assay; conditions: A549, 48 h
SMMC-7721 = assay: Cytotoxicity against human SMMC7721 cells after 48 hrs by MTT assay; conditions: SMMC-7721, 48 h
HL-60 = assay: Cytotoxicity against human HL60 cells after 48 hrs by MTT assay; conditions: HL-60, 48 h

SMILES | IC50 (SW480) [µM] | IC50 (MCF7) [µM] | IC50 (A549) [µM] | IC50 (SMMC-7721) [µM] | IC50 (HL-60) [µM]
O=C(C[n+]1cn(Cc2cc3ccccc3o2)c2ccccc21)c1ccc(O)cc1 | > 40 | > 40 | > 40 | > 40 | > 40
COc1ccc(C(=O)C[n+]2ccn(Cc3cc4ccccc4o3)c2)cc1 | > 40 | > 40 | > 40 | > 40 | > 40
Brc1ccccc1C[n+]1cn(Cc2cc3ccccc3o2)c2ccccc21 | 14.7 | 7.48 | 2.63 | 6.83 | 2.48
Cc1n(Cc2cc3ccccc3o2)cc[n+]1CC(=O)c1ccc(O)cc1 | > 40 | > 40 | > 40 | > 40 | > 40
COc1ccc(C(=O)C[n+]2cn(Cc3cc4ccccc4o3)c3ccccc32)cc1 | 23.1 | 14.6 | 7.18 | 13.6 | 3.91
c1ccc2oc(Cn3cnc4ccccc43)cc2c1 | > 40 | > 40 | > 40 | > 40 | > 40
C=CC[n+]1ccn(Cc2cc3ccccc3o2)c1C | > 40 | > 40 | > 40 | > 40 | > 40
O=C(C[n+]1cn(Cc2cc3ccccc3o2)c2ccccc21)c1ccc(Br)cc1 | 4.2 | 2.46 | 2.54 | 3.58 | 1.69
Cc1n(Cc2cc3ccccc3o2)cc[n+]1Cc1ccccc1Br | 3.89 | 2.24 | 2.96 | 10.2 | 1.28
CCc1n(Cc2cc3ccccc3o2)cc[n+]1CC(=O)c1ccc2ccccc2c1 | 1.69 | 2.59 | 7.44 | 4.26 | 1.45
CCc1n(Cc2cc3ccccc3o2)cc[n+]1CC(=O)c1ccc(O)cc1 | > 40 | > 40 | > 40 | > 40 | > 40
O=C(c1ccccc1)C(c1ccccc1)[n+]1cn(Cc2cc3ccccc3o2)c2ccccc21 (stereo not given) | 9.75 | 9.83 | 12.6 | 14.8 | 6.77
Cc1nccn1Cc1cc2ccccc2o1 | > 40 | > 40 | > 40 | > 40 | > 40
COc1ccc(C(=O)C[n+]2ccn(Cc3cc4ccccc4o3)c2C)cc1 | 0.28 | 1.44 | 0.37 | 11.6 | 0.78
O=C(C[n+]1ccn(Cc2cc3ccccc3o2)c1)c1ccccc1 | > 40 | > 40 | > 40 | > 40 | > 40
CCCC[n+]1ccn(Cc2cc3ccccc3o2)c1 | > 40 | > 40 | > 40 | > 40 | > 40
O=C(C[n+]1cn(Cc2cc3ccccc3o2)c2ccccc21)c1ccc2ccccc2c1 | 17.1 | 3.72 | 6.73 | 6.44 | 3.62

SMILES | IC50 (SW480) [µM] | IC50 (MCF7) [µM] | IC50 (A549) [µM] | IC50 (SMMC-7721) [µM] | IC50 (HL-60) [µM]
CCc1n(Cc2cc3ccccc3o2)cc[n+]1C(C(=O)c1ccccc1)c1ccccc1 (stereo not given) | 7.15 | 3.3 | 10.3 | 6.16 | 2.25
O=C(C[n+]1cn(Cc2cc3ccccc3o2)c2ccccc21)c1ccccc1 | > 40 | > 40 | > 40 | > 40 | > 40
Cc1n(Cc2cc3ccccc3o2)cc[n+]1CC(=O)c1ccccc1 | > 40 | > 40 | > 40 | > 40 | > 40
CCc1n(Cc2cc3ccccc3o2)cc[n+]1CC(=O)c1ccc(Br)cc1 | 1.34 | 4.47 | 25.7 | 7.51 | 1.87
O=C(C[n+]1ccn(Cc2cc3ccccc3o2)c1)c1ccc(O)cc1 | > 40 | > 40 | > 40 | > 40 | > 40
CCc1n(Cc2cc3ccccc3o2)cc[n+]1CC(=O)c1ccc(OC)cc1 | 1.02 | 3.05 | 1.13 | 8.43 | 0.4
c1ccc2oc(Cn3ccnc3)cc2c1 | > 40 | > 40 | > 40 | > 40 | > 40
O=C(C[n+]1ccn(Cc2cc3ccccc3o2)c1)c1ccc2ccccc2c1 | 17.1 | 12.7 | 9.95 | 8.08 | 6.27
Cc1n(Cc2cc3ccccc3o2)cc[n+]1CC(=O)c1ccc2ccccc2c1 | 1.03 | 1.09 | 4.97 | 3.5 | 1.04
CCCC[n+]1cn(Cc2cc3ccccc3o2)c2ccccc21 | > 40 | > 40 | > 40 | > 40 | > 40
Cc1n(Cc2cc3ccccc3o2)cc[n+]1CC(=O)c1ccc(Br)cc1 | > 40 | > 40 | > 40 | > 40 | > 40
CCc1nccn1Cc1cc2ccccc2o1 | > 40 | > 40 | > 40 | > 40 | > 40
O=C(C[n+]1ccn(Cc2cc3ccccc3o2)c1)c1ccc(Br)cc1 | > 40 | 18 | 12.2 | 14.3 | 10.3
Brc1ccccc1C[n+]1ccn(Cc2cc3ccccc3o2)c1 | > 40 | > 40 | > 40 | > 40 | > 40
C=CC[n+]1ccn(Cc2cc3ccccc3o2)c1 | > 40 | > 40 | > 40 | > 40 | > 40
CCc1n(Cc2cc3ccccc3o2)cc[n+]1CC(=O)c1ccccc1 | > 40 | > 40 | > 40 | > 40 | > 40
Cc1n(Cc2cc3ccccc3o2)cc[n+]1C(C(=O)c1ccccc1)c1ccccc1 (stereo not given) | 9.96 | 6.79 | 14.8 | 11.3 | 4.44
